From patent publication US10053431B2, “Tetrahydro-benzodiazepinones” (priority 2013, dated 2018) come the findings set out here.

Where a name gives a salt, the structure may show the parent alone. Bounds are passed on as bounds.

Assay [1] deals with BIR3 domain of XIAP (Homo sapiens (Human), UniProt P98170). As to the kind of experiment: TR-FRET assay for BIR3 (inhibition of binding of XIAP BIR3 domain to SMAC-derived Peptide A). The note with it: 6x His-tagged BIR3 domain (aa 241-356 of XIAP) 10 nM, Peptide A 20 nM, TR-FRET.
Assay [2] has as its target BIR2 domain of XIAP (Homo sapiens (Human), UniProt P98170, C202A/C213G). As to the kind of experiment: TR-FRET assay for BIR2 (inhibition of binding of XIAP BIR2 domain to SMAC-derived Peptide A). The note with it: 6x His-tagged BIR2 domain (aa 124-240 of XIAP) 10 nM, Peptide A 20 nM, TR-FRET; read-out: IC50 BIR2.

Chain of BIR3 domain of XIAP (P98170 241-356 with tags or gaps limits assumed): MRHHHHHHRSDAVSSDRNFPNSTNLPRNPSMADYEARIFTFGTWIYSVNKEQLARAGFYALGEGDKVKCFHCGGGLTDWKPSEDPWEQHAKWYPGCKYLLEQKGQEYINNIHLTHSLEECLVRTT
Chain of BIR2 domain of XIAP (P98170 124-240 with tags or gaps C202A/C213G limits assumed): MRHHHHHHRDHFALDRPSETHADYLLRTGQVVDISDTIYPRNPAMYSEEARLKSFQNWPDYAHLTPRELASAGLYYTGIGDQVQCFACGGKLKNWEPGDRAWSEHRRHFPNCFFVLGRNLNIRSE

For `CN[C@@H](C)C(=O)N[C@H]1CN(C(=O)c2ccc(C)cc2)c2ccccc2N(Cc2c(C)ccc3ccccc23)C1=O` [Example 96k], the half-inhibitory concentration (IC50) in assay [1] was 32200 nM; in assay [2], 38 nM.

As to `CN[C@@H](C)C(=O)N[C@H]1CN(C(=O)c2ccc(OC)cc2)c2ccccc2N(Cc2c(C)ccc3ccccc23)C1=O` [Example 96l], the IC50 in assay [1] is over 54800 nM; in assay [2], 37 nM.

As to `CN[C@@H](C)C(=O)N[C@H]1CN(C(=O)c2ccc(C(=O)O)cc2)c2ccccc2N(Cc2c(C)ccc3ccccc23)C1=O` [Example 97, 4-[(S)-3-((S)-2-Methylamino-propionylamino)-5-(2-methyl-naphthalen-1-ylmethyl)-4-oxo-2,3,4,5-tetrahydro-benzo[b][1,4]diazepine-1-carbonyl]-benzoic acid hydrochloride], the IC50 in assay [1] was over 54800 nM; in assay [2], 100 nM.

`CN[C@@H](C)C(=O)N[C@H]1CN(S(=O)(=O)NC)c2ccccc2N(Cc2c(C)ccc3ccccc23)C1=O` [Example 98b]: the IC50 in assay [1] was over 54800 nM; in assay [2], 188 nM.

For the molecule `CN[C@@H](C)C(=O)N[C@H]1CN(S(=O)(=O)c2ccc([N+](=O)[O-])cc2)c2ccccc2N(Cc2c(C)ccc3ccccc23)C1=O` [Example 98d], the results for the concentration for half-maximal inhibition (IC50) in assay [1] and in assay [2] were 29000 nM and 182 nM, respectively.

For `CN[C@@H](C)C(=O)N[C@H]1CN(S(=O)(=O)c2ccccc2)c2ccccc2N(Cc2c(C)ccc3ccccc23)C1=O` [Example 98e], the results for the concentration for half-maximal inhibition (IC50) in assay [1] and in assay [2] were 31600 nM and 133 nM, respectively.

With `CN[C@@H](C)C(=O)N[C@H]1CN(S(=O)(=O)c2ccc(OC)cc2)c2ccccc2N(Cc2c(C)ccc3ccccc23)C1=O` [Example 98f], the IC50 is over 50000 nM in assay [1] and 177 nM in assay [2].

With `CN[C@@H](C)C(=O)N[C@H]1CN(S(=O)(=O)N(C)C)c2ccccc2N(Cc2c(C)ccc3ccccc23)C1=O` [Example 100, (S)—N—[(S)-5-Dimethylsulfamoyl-1-(2-methyl-naphthalen-1-ylmethyl)-2-oxo-2,3,4,5-tetrahydro-1H-benzo[b][1,4]diazepin-3-yl]-2-methylamino-propionamide hydrochloride], the half-inhibitory concentration (IC50) was over 54800 nM in assay [1] and 249 nM in assay [2].

With `CN[C@@H](C)C(=O)N[C@H]1CN(C(=O)c2ccccc2C(C)=O)c2ccccc2N(Cc2c(C)ccc3ccccc23)C1=O` [Example 101, (S)—N—[(S)-5-(2-Acetyl-benzoyl)-1-(2-methyl-naphthalen-1-ylmethyl)-2-oxo-2,3,4,5-tetrahydro-1H-benzo[b][1,4]diazepin-3-yl]-2-methylamino-propionamide], the figures for the IC50 in assay [1] and in assay [2] were 53400 nM and 36 nM, respectively.

On to `CN[C@@H](C)C(=O)N[C@H]1CN(C(=O)c2ccc(C(C)=O)cc2)c2ccccc2N(CC(=O)Nc2cccc3ccccc23)C1=O` [Example 105, (2S)-N-[(3S)-1-(4-acetylbenzoyl)-5-[2-(naphthalen-1-ylamino)-2-oxoethyl]-4-oxo-2,3-dihydro-1,5-benzodiazepin-3-yl]-2-(methylamino)propanamide;2,2,2-trifluoroacetic acid], for which the IC50 turned out to be 46100 nM in assay [1] and 503 nM in assay [2].

On to `CN[C@@H](C)C(=O)N[C@H]1CN2C(=O)CNC(=O)c3ccc4c(c(OC)ccc4c3)CN(C1=O)c1ccccc12` [Example 108, Cyclic-5-[(S)-5-(3-Amino-acetyl)-3-((S)-2-methylamino-propionylamino)-2-oxo-2,3,4,5-tetrahydro-benzo[b][1,4]diazepin-1-ylmethyl]-6-methoxy-naphthalene-2-carboxylic amide hydrochloride], for which the IC50 was over 54800 nM in assay [1] and 17.2 nM in assay [2].

`CN[C@@H](C)C(=O)N[C@H]1CN(C(=O)c2ccc(C(C)=O)cc2)c2ccccc2N(CC(=O)Nc2nc3ccccc3s2)C1=O` [Example 109, (2S)-N-[(3S)-1-(4-acetylbenzoyl)-5-[2-(1,3-benzothiazol-2-ylamino)-2-oxoethyl]-4-oxo-2,3-dihydro-1,5-benzodiazepin-3-yl]-2-(methylamino)propanamide;2,2,2-trifluoroacctic acid]: the IC50 came to 42300 nM in assay [1] and 121 nM in assay [2].
